Experimental data taken from patent US20260315564A1, “THE USE OF TP3 (THYMOPENTIN ANALOG) BY INCREASING THE ACTIVITY AND NUMBER OF T-CELLS INVOLVED IN THE DEFENSE MECHANISM OF THE IMMUNE SYSTEM OF MAMMALS, FOR THE PREVENTION OR TREATMENT OF DISEASES TO EXTEND THE AVERAGE LIFESPAN” (priority 2023, published 2026).
Marks after values point to notes of the source that are not given here. Residues, ends and D or L forms follow the SMILES beside them.

What was measured:
[1] = test system: PFC (plaque-forming cells); assay: PFC (plaque-forming cells) in H. Wistar rats; format: in vivo, Hannover Wistar rats (newborn); conditions: for PFC (plaque-forming cells): 1x/ip, control 53.9 ± 8.8; for PFC (plaque-forming cells) / number of PFC: n = 12; for number of PFC: 9x (3x3 weeks/ip), control 139 ± 12.7
Description: (§1) Rats (Hannover Wistar) were treated (i.p.) within 6-12 hours after birth. Treatments after birth in a single session or in another examination • on the 7th day after the first treatment; • another group was vaccinated 3 times a week after the first day of […]. treatment • in a subsequent group treated over three weeks (9× in total) (10-3,10-5,10-7//10-9, 10-11,10-12, 10-13 M/animal, i.p). • in the fourth test series, the animals were treated with TP fragments at 0, 1, 2, 4, or 5 days of age. The rats were unanimously immunized on the 14th day after birth (1% BVVT with 0.5 ml cell suspension, i.p.). Immune responses were measured after 7 days on day 21 of the experiment.
(§2) Rats (Hannover Wistar) were treated (i.p.) within 6-12 hours after birth. Treatments after birth in a single session or in another examination • on the 7th day after the first treatment; • another group was vaccinated 3 times a week after the first day of treatment. • in a subsequent group, the treatments took place over three weeks (9× in total) (10-3,10-5,10-7//10-9, 10-11,10-12,10-13 M/animal, i.p.). • in the fourth test series, the animals were treated with TP fragments at 0, 1, 2, 4, or 5 days of age. The rats were randomly immunized on the 14th day after birth (1% BVVT with 0.5 ml cell suspension, i.p.). Immune responses were measured after 7 days on day 21 of the experiment. 1.2. Determination of anti-BVVT Ab titers (from rat blood samples ex vivo) • with the haemagglutination method (Takátsy and Fürész, 1955) on 96-well plates (Flow). 50 ul of 0.9% NaCl solution was added to each well. The sera (50 μl) were diluted by half dilution in 12 steps, mixed with 25 pμl 2% BVVT cell suspension, and incubated (1 hour at 37 °C). The hemagglutination titers of the sera are determined. Values expressed in logarithmic values refer to total agglutination.
(§3) 1.3./Determination of the number of plaque-forming cells (PFC) (using rat spleen cells) The chopped splenocytes were placed in a culture medium (Parker 199) and then shaken with a shaker for 1 minute. The cells were suctioned from the surface of the rapidly settling tissue debris. Red blood cells were removed osmotically. Cell suspensions were adjusted to 107/ml. The cell suspensions were mixed with a 15% BVVT cell suspension in a ratio of 2:1. PFC was determined with the mixture using a modified chamber technique according to Channingham et al., 1966). Before filling the chamber, 50 μl of fresh diluted guinea pig serum (1:20) was added. The chambers (2-2/slide) were incubated (370C 45′) after sealing with paraffin, the formed plaques were counted under a microscope (at 400× magnification) within 2 hours Marker tests related to the rejection reaction of an adult thymus-depleted mouse skin graft 1.4./Rejection of skin transplants in nude mice after treatment with TP fragments (Snell et al., Transplantation 5, 492, 1967).

[2] = test system: Anti-BVVT-Ab (IgM); assay: Anti-BVVT-Ab titers (IgM) in newborn rats after single treatment (hemagglutination); format: in vivo, Hannover Wistar rats (newborn); conditions: 1x/ip, n = 12, control 6.3 (TP5), 5.2 (TP3)
Description: as §1, §2

[3] = test system: Thy1+ cells in the spleens; assay: Number of Thy1+ cells in spleens of Balb/c nu/nu mice after TP-fragment treatment; format: in vivo; conditions: ip, n = 8/group, control 5.4
Description: • D.1/Direct cytotoxicity test/for the detection of Thy, Lyt antigens (Fathman 1979, in Immunol Meth I. Eds. Lefkovits, Pernis, Acad Press, New York, pp. 212-213.) was used. Subpopulation ratios were determined from bone marrow cells, thymus, and spleen cells isolated from the lymphatic organs of mice. The cell suspensions (1.087-1.088 g/cm3) were centrifuged ona density gradient (2000 rpm, 20 minutes), and the cells were washed 3× with RPMI1640 medium containing 0.3% BSA, then adjusted to 107/ml. Thyl, Lyt 1, Lyt2 monoclonal antibodies (McAb/Ando I. (ICRF Human Tumor Immunol. UCM Med Sch. London) were obtained. 25 μl McAb and 25 ul cell suspension were incubated (60′, 40C1), after centrifugation (1250 rpm 10′), the cells were resuspended with 40 μul of diluted (1:50) rabbit complement, then incubated (370C, 60′). The cell suspensions were stained with 1:5 dilution of Eosin Y (Jansen). the ratio of live to non-living cells was determined.
Mice were treated for 4 weeks 3 times a week (every other day) with TP fragments (10-9, 10-8, 10-7//10-3, 10-2, 10-1 M/animal ip. (Veys et al., 1983) at the end of the treatments ([…]), the mice were immunized (with 0.5 ml 1% BVVT suspension ip. The immune response was expressed in antibody titers as above).
Effects of inducing renewal of the immune system and increasing activity in Balb/c nude mice The nude mouse is genetically deficient in the thymus. The […] atrophies over time after hormonal follow-up in mice and humans. As a result, the strength of the lymphoid, and within that of the T cells, decreases. All this means a definitive decrease in antigen recognition capacity. The increasing number and activity of immune cells in the thymus of nude mice is increasing health and quality of life span.
The number of Thy1+ cells in the spleens of Balb/c nu/nu mice after TP-fragment treatment (Thy 1+ marker-bearing cells in mice correspond to human lymphocytes)

[4] = test system: PFC; assay: PFC cell count in aged mice; format: in vivo, aged mice (Balb/c); conditions: first value column under head 'PFC IgM/logx^2'; aged mice 18 months old; n = 8/group; young control 6.3, aged 3.7
Description: as §3
TP effect on antibody production and PFC cell count in aged mice (Balb/c)

CC(C)[C@H](NC(=O)[C@H](CC(=O)O)NC(=O)[C@H](CCCCN)NC(=O)[C@@H](N)CCCN=C(N)N)C(=O)N[C@@H](Cc1ccc(O)cc1)C(=O)O [TP5] (H-RKDVY-OH)
PFC (plaque-forming cells) ([1]; 10^-6 M/animal): 71 | number of PFC ([1]; 10^-6 M/animal): 159 | PFC (plaque-forming cells) ([1]; 10^-7 M/animal): 129* | number of PFC ([1]; 10^-7 M/animal): 203* | PFC (plaque-forming cells) ([1]; 10^-8 M/animal): 148* | number of PFC ([1]; 10^-8 M/animal): 223* | PFC (plaque-forming cells) ([1]; 10^-9 M/animal): 90* | number of PFC ([1]; 10^-9 M/animal): 126 | PFC (plaque-forming cells) ([1]; 10^-10 M/animal): 76 | number of PFC ([1]; 10^-10 M/animal): 185* | PFC (plaque-forming cells) ([1]; 10^-11 M/animal): 75 | number of PFC ([1]; 10^-11 M/animal): 162 | PFC (plaque-forming cells) ([1]; 10^-13 M/animal): 67 | number of PFC ([1]; 10^-13 M/animal): 143 | potency TP3 versus TP5 (PFC) ([1]; comparison, in words): TP3=TP5 potency | Anti-BVVT-Ab titers (IgM) ([2]; 10^-3 M/animal): 7.6 2 log | Anti-BVVT-Ab titers (IgM) ([2]; 10^-4 M/animal): 8.1* 2 log | Anti-BVVT-Ab titers (IgM) ([2]; 10^-5 M/animal): 8.6* 2 log | Anti-BVVT-Ab titers (IgM) ([2]; 10^-6 M/animal): 8.5* 2 log | Anti-BVVT-Ab titers (IgM) ([2]; 10^-9 M/animal): 8.0* 2 log | Anti-BVVT-Ab titers (IgM) ([2]; 10^-11 M/animal): 7.7 2 log | Anti-BVVT-Ab titers (IgM) ([2]; 10^-13 M/animal): 7.0 2 log | number of Thy1+ cells in spleen ([3]; 10^-1 M/mice): 131* | number of Thy1+ cells in spleen ([3]; 10^-2 M/mice): 129** | number of Thy1+ cells in spleen ([3]; 10^-3 M/mice): 94* | number of Thy1+ cells in spleen ([3]; 10^-7 M/mice): 125** | number of Thy1+ cells in spleen ([3]; 10^-8 M/mice): 79* | number of Thy1+ cells in spleen ([3]; 10^-9 M/mice): 9.5 | PFC [4]: 6.1*
